target: B-Raf (V600E)-kinase (Homo sapiens, UniProt P15056, V600E); assay: Kinase test B-Raf (V600E); format: biochemical; conditions: compound concentration 2 μM; 100% = no inhibition, 0% = total inhibition; read-out: % CTL (residual activity of the enzyme relative to DMSO control)
In short: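 Kinase preincubated with compound (typically 2 μM to 0.119 nM or 0.017 nM, 5% DMSO) 1 h at RT, then reacted 60 min at RT with 250 μM ATP and biotinylated MEK1. Phospho-MEK (Ser217/221) captured on streptavidin, detected by europium time-resolved fluorescence; IC50 from dose-response curves.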

Sequence of B-Raf (V600E)-kinase (P15056 whole entry V600E): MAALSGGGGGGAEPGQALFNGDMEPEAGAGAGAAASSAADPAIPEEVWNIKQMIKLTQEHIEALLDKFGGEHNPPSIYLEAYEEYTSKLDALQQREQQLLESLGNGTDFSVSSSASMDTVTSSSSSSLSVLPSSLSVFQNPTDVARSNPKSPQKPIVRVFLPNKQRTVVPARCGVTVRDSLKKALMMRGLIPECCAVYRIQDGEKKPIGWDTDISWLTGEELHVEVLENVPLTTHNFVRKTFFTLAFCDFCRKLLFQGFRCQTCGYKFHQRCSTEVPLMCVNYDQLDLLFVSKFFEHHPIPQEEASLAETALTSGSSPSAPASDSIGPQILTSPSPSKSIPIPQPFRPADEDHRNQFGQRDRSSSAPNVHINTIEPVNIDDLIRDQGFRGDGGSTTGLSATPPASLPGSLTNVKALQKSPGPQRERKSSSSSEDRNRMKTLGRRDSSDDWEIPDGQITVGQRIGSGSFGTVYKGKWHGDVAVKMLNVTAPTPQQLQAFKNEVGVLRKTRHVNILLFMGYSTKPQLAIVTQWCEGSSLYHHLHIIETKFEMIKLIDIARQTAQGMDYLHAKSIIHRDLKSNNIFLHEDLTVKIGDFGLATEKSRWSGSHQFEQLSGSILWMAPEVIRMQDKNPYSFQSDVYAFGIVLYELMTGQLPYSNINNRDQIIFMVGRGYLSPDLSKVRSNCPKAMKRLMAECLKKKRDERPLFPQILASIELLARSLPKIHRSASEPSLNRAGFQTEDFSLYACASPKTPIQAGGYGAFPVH

| remaining activity at 2 µM | SMILES |
| --- | --- |
| 1.9% | Cc1ncc(C(=O)Nc2cc(C(C)(C)C)ncn2)cc1-n1cc(-c2cncc(N3CCN(C)CC3)c2)nn1 [Example I-177] |
| 2.3% | Cc1ncc(C(=O)Nc2ccnc(C(C)(C)C)c2)cc1-n1cc(-c2cncc(N3CCN(C)CC3)c2)nn1 [Example I-178] |
| 2.6% | Cc1ncc(C(=O)Nc2cc(C(C)(C)C)on2)cc1-n1cc(-c2cncc(N3CCN(CCO)CC3)c2)nn1 [Example I-179] |
| 2.9% | Cc1ncc(C(=O)Nc2cc(C(C)(C)C)no2)cc1-n1cc(-c2cncc(N3CCN(C)CC3)c2)nn1 [Example I-180] |
| 2.3% | Cc1ncc(C(=O)Nc2cc(C(C)(C)C)on2)cc1-n1cc(-c2cncc(N3CCN(CC(F)F)CC3)c2)nn1 [Example I-181] |
| 2.1% | Cc1ncc(C(=O)Nc2cc(C(C)(C)C)on2)cc1-n1cc(-c2cncc(N3CCN(CC(F)(F)F)CC3)c2)nn1 [Example I-182] |
| 1.8% | Cc1ncc(C(=O)Nc2cc(C(C)(C)C)on2)cc1-n1cc(-c2cncc(N3CCNCC3)c2)nn1 [Example I-183] |
| 2.5% | Cc1ncc(C(=O)Nc2cc(C(C)(C)C)on2)cc1-n1cc(-c2cncc(CN3CCOCC3)c2)nn1 [Example I-184] |
| 1.7% | Cc1ncc(C(=O)Nc2cc(C(C)(C)C)on2)cc1-n1cc(-c2cncc(CN3CCCC3)c2)nn1 [Example I-185] |
| 1.5% | Cc1ncc(C(=O)Nc2cc(C(C)(C)C)on2)cc1-n1cc(-c2cncc(CN3CCN(C)CC3)c2)nn1 [Example I-186] |
| 4.1% | Cc1ncc(C(=O)Nc2cc(C(C)(C)C)on2)cc1-n1cc(-c2cncc(CN(C)C)c2)nn1 [Example I-187] |
| 1.5% | CCN1CCN(Cc2cncc(-c3cn(-c4cc(C(=O)Nc5cc(C(C)(C)C)on5)cnc4C)nn3)c2)CC1 [Example I-188] |
| 3.8% | Cc1ncc(C(=O)Nc2cc(C(C)(C)C)on2)cc1-n1cc(-c2cncc(CN3CCC(F)(F)C3)c2)nn1 [Example I-189] |
| 4.1% | Cc1ncc(C(=O)Nc2cc(C(C)(C)C)on2)cc1-n1cc(-c2cncc(CN3CCN(C(C)C)CC3)c2)nn1 [Example I-190] |
| 3% | CCN(C)Cc1cncc(-c2cn(-c3cc(C(=O)Nc4cc(C(C)(C)C)on4)cnc3C)nn2)c1 [Example I-191] |
| 1.9% | Cc1ncc(C(=O)Nc2cc(C(C)(C)C)on2)cc1-n1cc(-c2cncc(CN3CC[C@@H](F)C3)c2)nn1 [Example I-192] |
| 3.6% | Cc1ncc(C(=O)Nc2cc(C(C)(C)C)on2)cc1-n1cc(-c2cncc(CN3CC[C@H](F)C3)c2)nn1 [Example I-193] |
| 2.1% | Cc1ncc(C(=O)Nc2cc(C(C)(C)C)on2)cc1-n1cc(-c2cncc(CN)c2)nn1 [Example I-194] |
| 0.8% | Cc1ncc(C(=O)Nc2cc(C(C)(C)C)on2)cc1-n1cc(-c2cncc(N3CCC4(CCN(C)CC4)CC3)c2)nn1 [Example I-195] |
| 1% | Cc1ncc(C(=O)Nc2cc(C(C)(C)C)on2)cc1-n1cc(-c2cncc(NC3CC(N4CCN(C)CC4)C3)c2)nn1 (centres unmarked) [Example I-196] |

| remaining activity at 2 µM | SMILES |
| --- | --- |
| 1% | Cc1ncc(C(=O)Nc2cc(C(C)(C)C)on2)cc1-n1cc(-c2cncc(N3CCN(CCOC(C)C)CC3)c2)nn1 [Example I-197] |
| 1.7% | Cc1ncc(C(=O)Nc2cc(C(C)(C)C)on2)cc1-n1cc(-c2cncc(N3CCN(CCF)CC3)c2)nn1 [Example I-198] |
| 1.6% | Cc1ncc(C(=O)Nc2cc(C(C)(C)C)on2)cc1-n1cc(-c2cncc(NC3CCN(C(C)C)CC3)c2)nn1 [Example I-199] |
| 1% | Cc1ncc(C(=O)Nc2cc(C(C)(C)C)on2)cc1-n1cc(-c2cncc(N(C)C3CCN(C(C)C)CC3)c2)nn1 [Example I-200] |
| 1.6% | COCCN1CCCN(c2cncc(-c3cn(-c4cc(C(=O)Nc5cc(C(C)(C)C)on5)cnc4C)nn3)c2)CC1 [Example I-201] |
| 1.6% | Cc1ncc(C(=O)Nc2cc(C(C)(C)C)on2)cc1-n1cc(-c2cncc(N3CCCN(C)CC3)c2)nn1 [Example I-202] |
| 1% | CCC(CC)N1CCN(c2cncc(-c3cn(-c4cc(C(=O)Nc5cc(C(C)(C)C)on5)cnc4C)nn3)c2)CC1 [Example I-204] |
| 0.8% | Cc1ncc(C(=O)Nc2cc(C(C)(C)C)on2)cc1-n1cc(-c2cncc(N3CCC(N4CCN(C)CC4)CC3)c2)nn1 [Example I-205] |
| 0.9% | Cc1ncc(C(=O)Nc2cc(C(C)(C)C)on2)cc1-n1cc(-c2cncc(N3CCC(CN4CCOCC4)CC3)c2)nn1 [Example I-206] |
| 4.4% | Cc1ncc(NC(=O)c2cc(N3CCN(C)CC3)cc(C(F)(F)F)c2)cc1-n1cc(-c2cnn(C)c2C)nn1 [XII-1] |
| 4.6% | Cc1ncc(NC(=O)c2cc(C(F)(F)F)ccn2)cc1-n1cc(-c2cnn(C)c2C)nn1 [XII-2] |
| 4.7% | Cc1ncc(NC(=O)c2cc(C(C)(C)C)on2)cc1-n1cc(-c2cnn(C)c2C)nn1 [XII-3] |
| 1.8% | Cc1ncc(NC(=O)c2cc(N3CCN(C)CC3)c(F)c(C(F)(F)F)c2)cc1-n1cc(-c2cnn(C)c2C)nn1 [XII-5] |
| 4.7% | Cc1ncc(NC(=O)c2cccc(C(C)(C)C#N)c2)cc1-n1cc(-c2cnn(C)c2C)nn1 [XII-6] |
| 4.7% | COc1ccc(C(=O)Nc2cnc(C)c(-n3cc(-c4cnn(C)c4C)nn3)c2)cc1C(F)(F)F [XII-7] |
| 6.4% | Cc1ncc(NC(=O)c2cccc(OC(F)(F)F)c2)cc1-n1cc(-c2cnn(C)c2C)nn1 [XII-8] |
| 6.6% | Cc1ccc(C(F)(F)F)cc1C(=O)Nc1cnc(C)c(-n2cc(-c3cnn(C)c3C)nn2)c1 [XII-9] |
| 2.5% | Cc1ncc(NC(=O)c2cccc(C(C)(C)C#N)c2)cc1-n1cc(-c2cncnc2)nn1 [XII-10] |
| 5.2% | COc1cncc(-c2cn(-c3cc(NC(=O)c4cccc(C(C)(C)C#N)c4)cnc3C)nn2)c1 [XII-12] |
| 0.9% | Cc1ncc(NC(=O)c2cccc(C(C)(C)C#N)c2)cc1-n1cc(-c2cncc(C#N)c2)nn1 [XII-13] |

| remaining activity at 2 µM | SMILES |
| --- | --- |
| 0.8% | Cc1ncc(NC(=O)c2cc(OC(F)(F)F)cc(N3CCN(C)CC3)c2)cc1-n1cc(-c2cnn(C)c2C)nn1 [XII-15] |
| 0.7% | COc1cncc(-c2cn(-c3cc(NC(=O)c4cc(OC(F)(F)F)cc(N5CCN(C)CC5)c4)cnc3C)nn2)c1 [XII-16] |
| 0.9% | Cc1ncc(NC(=O)c2cc(OC(F)(F)F)cc(N3CCN(C)CC3)c2)cc1-n1cc(-c2cccnc2)nn1 [XII-17] |
| 2.1% | Cc1cn2c(-c3cn(-c4cc(NC(=O)c5cc(N6CCN(C)CC6)c(C)c(C(F)(F)F)c5)cnc4C)nn3)cnc2cn1 [XII-18] |
| 6.5% | CC(=O)Nc1ncc(-c2cn(-c3cc(NC(=O)c4cc(OC(F)(F)F)cc(N5CCN(C)CC5)c4)cnc3C)nn2)s1 [XII-19] |
| 1.6% | Cc1ncc(NC(=O)c2cc(OC(F)(F)F)cc(N(C)CCN(C)C)c2)cc1-n1cc(-c2cnn(C)c2C)nn1 [XII-20] |
| 1.5% | Cc1ncc(NC(=O)c2cc(NCCN(C)C)cc(OC(F)(F)F)c2)cc1-n1cc(-c2cnn(C)c2C)nn1 [XII-21] |
| 3.4% | CCN1CCN(c2cc(OC(F)(F)F)cc(C(=O)Nc3cnc(C)c(-n4cc(-c5cnn(C)c5C)nn4)c3)c2)CC1 [XII-22] |
| 7.2% | Cc1ncc(-c2cn(-c3cc(NC(=O)c4cc(OC(F)(F)F)cc(N5CCN(C)CC5)c4)cnc3C)nn2)s1 [XII-23] |
| 3.8% | COCCN1CCN(c2cc(OC(F)(F)F)cc(C(=O)Nc3cnc(C)c(-n4cc(-c5cnn(C)c5C)nn4)c3)c2)CC1 [XII-24] |
| 3.9% | Cc1ncc(NC(=O)c2cc(OC(F)(F)F)cc(N3CCOCC3)c2)cc1-n1cc(-c2cnn(C)c2C)nn1 [XII-25] |
| 2.2% | Cc1ncc(NC(=O)c2cc(OC(F)(F)F)cc(N3CCN(C)CC3)c2)cc1-n1cc(-c2cncnc2)nn1 [XII-26] |
| 2.4% | Cc1ncc(NC(=O)c2cc(OC(F)(F)F)cc(N3CCN(C)CC3)c2)cc1-n1cc(-c2cncc(C#N)c2)nn1 [XII-27] |
| 2% | Cc1ncc(NC(=O)c2cc(OC(F)(F)F)cc(N(C)C3CCN(C)C3)c2)cc1-n1cc(-c2cnn(C)c2C)nn1 (centres unmarked) [XII-28] |
| 1.6% | Cc1ncc(NC(=O)c2cc(OC(F)(F)F)cc(N3CCC(N(C)C)C3)c2)cc1-n1cc(-c2cnn(C)c2C)nn1 (centres unmarked) [XII-29] |
| 1.8% | Cc1ncc(NC(=O)c2cc(OC(F)(F)F)cc(C3=CCNCC3)c2)cc1-n1cc(-c2cnn(C)c2C)nn1 [XII-30] |
| 1.9% | COCCCN1CCN(c2cncc(-c3cn(-c4cc(NC(=O)c5cc(C(F)(F)F)ccn5)cnc4C)nn3)c2)CC1 [XII-31] |
| 2.9% | Cc1ncc(NC(=O)c2cc(C(F)(F)F)ccn2)cc1-n1cc(-c2cncc(N3CCN(C(C)(C)C)CC3)c2)nn1 [XII-32] |
| 1.7% | CCOCCN1CCN(c2cncc(-c3cn(-c4cc(NC(=O)c5cc(C(F)(F)F)ccn5)cnc4C)nn3)c2)CC1 [XII-33] |
| 0.8% | Cc1ncc(NC(=O)c2cccc(C(C)(C)C#N)c2)cc1-n1cc(-c2cncc(N3CCN(C)CC3)c2)nn1 [XII-34] |

same assay, conditions: measurement at 0.29 μM (*); 100% = no inhibition, 0% = total inhibition; read-out: % CTL (residual activity of the enzyme relative to DMSO control)

| remaining activity at 0.29 µM | SMILES |
| --- | --- |
| 0.9% | CC(=O)Nc1ncc(-c2cn(-c3cc(NC(=O)c4cccc(C(C)(C)C#N)c4)cnc3C)nn2)s1 [XII-14] |

same assay, conditions: measurement at 1.43 μM (***); 100% = no inhibition, 0% = total inhibition; read-out: % CTL (residual activity of the enzyme relative to DMSO control)

| remaining activity at 1.43 µM | SMILES |
| --- | --- |
| 1.5% | Cc1ncc(NC(=O)c2cccc(C(C)(C)C#N)c2)cc1-n1cc(-c2cccnc2)nn1 [XII-11] |
